Columns and labels:
[1] = target: Mitogen-activated protein kinase kinase kinase 10 (Homo sapiens) (UniProt Q02779); experiment: Selectivity interaction (Kinase panel (KiNativ target engagement assay in Jurkat cells)) EUB0001635a MAP3K10; type: cell-based; conditions: Selectivity number of off-targets 0.0, Selectivity number of targets 233.0, Source Knowledge https://www.sciencedirect.com/science/article/pii/S2451945619300674?via%3Dihub, at 1 µM
[2] = target: T1, Mitogen-activated protein kinase kinase kinase 2 (Homo sapiens) (UniProt Q9Y2U5); experiment: Selectivity interaction (Kinase panel (KiNativ target engagement assay in Jurkat cells)) EUB0001635a MAP3K2; type: cell-based; conditions: at 1 µM
T1 sequence (whole entry): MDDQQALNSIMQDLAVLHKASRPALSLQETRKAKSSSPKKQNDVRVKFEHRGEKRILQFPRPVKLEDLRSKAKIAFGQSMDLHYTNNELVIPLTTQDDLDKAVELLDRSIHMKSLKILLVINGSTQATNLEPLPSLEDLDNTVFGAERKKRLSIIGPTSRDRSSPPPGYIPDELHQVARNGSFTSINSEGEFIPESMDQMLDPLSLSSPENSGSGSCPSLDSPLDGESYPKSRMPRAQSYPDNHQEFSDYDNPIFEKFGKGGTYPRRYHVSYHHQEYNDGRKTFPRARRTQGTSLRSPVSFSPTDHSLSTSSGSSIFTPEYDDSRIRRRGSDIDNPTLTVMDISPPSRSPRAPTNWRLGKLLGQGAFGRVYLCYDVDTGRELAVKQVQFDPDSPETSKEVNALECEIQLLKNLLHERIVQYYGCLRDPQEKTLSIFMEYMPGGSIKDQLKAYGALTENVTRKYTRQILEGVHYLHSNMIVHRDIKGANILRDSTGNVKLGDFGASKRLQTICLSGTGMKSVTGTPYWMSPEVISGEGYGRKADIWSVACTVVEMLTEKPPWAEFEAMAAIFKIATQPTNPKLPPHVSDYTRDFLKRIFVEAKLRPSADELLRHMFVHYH

[3] = target: Ribosomal protein S6 kinase alpha-1 (Homo sapiens, UniProt Q15418); experiment: Selectivity interaction (KinomeScan (DiscoverX)) EUB0000595a RPS6KA1; conditions: at 10 µM
[4] = target: T2, cGMP-dependent protein kinase 2 (Homo sapiens) (UniProt Q13237); experiment: Selectivity interaction (KinomeScan (DiscoverX)) EUB0001079a PRKG2; conditions: at 1 µM
T2 sequence (whole entry): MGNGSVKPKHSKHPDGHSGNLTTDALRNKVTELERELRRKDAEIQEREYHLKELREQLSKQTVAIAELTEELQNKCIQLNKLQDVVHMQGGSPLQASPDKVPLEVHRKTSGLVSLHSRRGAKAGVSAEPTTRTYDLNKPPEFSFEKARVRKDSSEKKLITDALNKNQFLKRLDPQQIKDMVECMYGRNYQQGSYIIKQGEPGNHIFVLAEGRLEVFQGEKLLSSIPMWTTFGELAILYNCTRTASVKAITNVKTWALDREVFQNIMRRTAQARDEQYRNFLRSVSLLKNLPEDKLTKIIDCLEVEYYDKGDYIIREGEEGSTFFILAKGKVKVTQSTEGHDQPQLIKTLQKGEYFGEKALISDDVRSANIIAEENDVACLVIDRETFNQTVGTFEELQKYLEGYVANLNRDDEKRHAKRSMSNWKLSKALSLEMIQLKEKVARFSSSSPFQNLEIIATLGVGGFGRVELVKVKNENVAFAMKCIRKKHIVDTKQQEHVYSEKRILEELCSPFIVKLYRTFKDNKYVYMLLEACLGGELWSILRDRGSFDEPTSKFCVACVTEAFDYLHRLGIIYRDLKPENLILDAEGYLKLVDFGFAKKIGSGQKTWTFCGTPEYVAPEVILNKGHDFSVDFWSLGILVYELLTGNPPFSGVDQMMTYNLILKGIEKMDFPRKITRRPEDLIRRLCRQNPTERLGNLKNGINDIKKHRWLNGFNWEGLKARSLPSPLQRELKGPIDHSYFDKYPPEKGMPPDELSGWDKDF

[5] = target: Casein kinase I isoform delta (Homo sapiens, UniProt P48730); experiment: Selectivity interaction (Kinase panel (Z-LYTE Assay)) EUB0001632a CSNK1D; conditions: at 10 µM
[6] = target: T3, Serine/threonine-protein kinase N2 (Homo sapiens, UniProt Q16513); experiment: Selectivity interaction (KinomeScan (DiscoverX)) EUB0000666a PKN2; conditions: at 10 µM
[7] = target: G protein-coupled receptor kinase 4 (Homo sapiens) (UniProt P32298); experiment: Selectivity interaction (KinomeScan (DiscoverX)) EUB0000666a GRK4; conditions: at 10 µM
[8] = target: T3, Serine/threonine-protein kinase N2; experiment: Selectivity interaction (Kinase panel (33PanQinase(R) Activity Assay)) EUB0000877a PKN2
[9] = system: Epidermal growth factor receptor (Homo sapiens), P00533 [UNDEFINED MUTATION]; experiment: Selectivity interaction (ProQinase) EUB0000171b EGFR; conditions: at 5 µM
[10] = target: Calcium/calmodulin-dependent protein kinase type II subunit delta (Homo sapiens) (UniProt Q13557); experiment: Selectivity interaction (ActivX KiNativ screen (ex vivo kinase selectivity in human PBMCs)) EUB0001619a CAMK2D; type: cell-based; conditions: PBMC, at 1 µM
[11] = target: Serine/threonine-protein kinase SMG1 (Homo sapiens) (UniProt Q96Q15); experiment: Selectivity interaction (ActivX KiNativ screen (kinase selectivity in THP-1 cell lysates)) EUB0000639a SMG1; type: subcellular; conditions: lysate, at 5 µM
[12] = target: T4, Hormonally up-regulated neu tumor-associated kinase (Homo sapiens) (UniProt P57058); experiment: Selectivity interaction (Ambit KINOMEscan and KiNATiv profiling in Jurkat cells) EUB0000090b HUNK; type: cell-based; conditions: at 1 µM
T4 sequence (whole entry): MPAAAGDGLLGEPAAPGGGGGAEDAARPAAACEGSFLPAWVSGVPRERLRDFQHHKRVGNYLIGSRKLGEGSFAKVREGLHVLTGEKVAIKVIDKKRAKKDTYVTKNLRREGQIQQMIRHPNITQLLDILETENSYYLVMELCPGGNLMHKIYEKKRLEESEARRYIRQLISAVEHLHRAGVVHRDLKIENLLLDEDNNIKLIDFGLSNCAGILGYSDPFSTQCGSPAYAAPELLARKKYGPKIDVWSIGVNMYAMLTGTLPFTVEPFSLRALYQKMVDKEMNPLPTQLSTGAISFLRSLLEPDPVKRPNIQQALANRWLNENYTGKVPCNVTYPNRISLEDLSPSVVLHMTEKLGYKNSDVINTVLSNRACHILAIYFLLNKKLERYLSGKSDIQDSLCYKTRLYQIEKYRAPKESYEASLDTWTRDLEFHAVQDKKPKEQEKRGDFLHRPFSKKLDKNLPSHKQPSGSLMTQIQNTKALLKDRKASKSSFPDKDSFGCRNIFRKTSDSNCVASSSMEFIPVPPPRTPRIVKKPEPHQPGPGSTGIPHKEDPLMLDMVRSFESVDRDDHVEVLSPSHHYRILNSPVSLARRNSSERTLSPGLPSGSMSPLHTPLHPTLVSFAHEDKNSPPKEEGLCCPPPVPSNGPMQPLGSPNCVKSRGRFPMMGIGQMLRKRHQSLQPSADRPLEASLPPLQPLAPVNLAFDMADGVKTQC

Sequence of Calcium/calmodulin-dependent protein kinase type II subunit delta (Homo sapiens) (Q13557 whole entry): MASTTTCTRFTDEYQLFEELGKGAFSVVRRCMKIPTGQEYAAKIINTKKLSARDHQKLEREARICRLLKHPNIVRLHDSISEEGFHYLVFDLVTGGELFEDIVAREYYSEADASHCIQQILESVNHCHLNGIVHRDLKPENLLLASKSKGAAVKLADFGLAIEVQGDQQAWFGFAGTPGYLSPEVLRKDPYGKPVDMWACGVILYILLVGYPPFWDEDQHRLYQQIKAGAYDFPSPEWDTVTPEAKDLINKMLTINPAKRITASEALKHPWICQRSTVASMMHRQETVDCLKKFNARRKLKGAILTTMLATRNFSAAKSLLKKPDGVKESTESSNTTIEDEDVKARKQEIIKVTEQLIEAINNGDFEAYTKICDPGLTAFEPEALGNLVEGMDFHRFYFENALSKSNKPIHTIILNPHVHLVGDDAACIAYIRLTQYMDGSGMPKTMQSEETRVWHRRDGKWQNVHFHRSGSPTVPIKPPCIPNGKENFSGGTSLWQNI
Sequence of G protein-coupled receptor kinase 4 (Homo sapiens) (P32298 whole entry, looked up): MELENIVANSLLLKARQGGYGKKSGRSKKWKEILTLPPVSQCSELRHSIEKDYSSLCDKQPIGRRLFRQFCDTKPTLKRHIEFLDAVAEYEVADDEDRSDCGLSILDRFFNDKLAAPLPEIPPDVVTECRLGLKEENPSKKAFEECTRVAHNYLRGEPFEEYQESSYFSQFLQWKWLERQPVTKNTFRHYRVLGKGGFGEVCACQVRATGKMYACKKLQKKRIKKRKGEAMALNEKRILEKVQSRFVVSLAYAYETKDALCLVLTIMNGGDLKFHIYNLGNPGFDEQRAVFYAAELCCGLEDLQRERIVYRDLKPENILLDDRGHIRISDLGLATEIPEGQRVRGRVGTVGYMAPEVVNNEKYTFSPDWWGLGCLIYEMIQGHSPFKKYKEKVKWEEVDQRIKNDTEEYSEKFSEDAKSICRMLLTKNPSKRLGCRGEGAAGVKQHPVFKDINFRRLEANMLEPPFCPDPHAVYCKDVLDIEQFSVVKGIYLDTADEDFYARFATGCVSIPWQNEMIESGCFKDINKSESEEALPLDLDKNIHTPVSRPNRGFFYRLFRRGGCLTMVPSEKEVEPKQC
Sequence of Serine/threonine-protein kinase SMG1 (Homo sapiens) (Q96Q15 whole entry): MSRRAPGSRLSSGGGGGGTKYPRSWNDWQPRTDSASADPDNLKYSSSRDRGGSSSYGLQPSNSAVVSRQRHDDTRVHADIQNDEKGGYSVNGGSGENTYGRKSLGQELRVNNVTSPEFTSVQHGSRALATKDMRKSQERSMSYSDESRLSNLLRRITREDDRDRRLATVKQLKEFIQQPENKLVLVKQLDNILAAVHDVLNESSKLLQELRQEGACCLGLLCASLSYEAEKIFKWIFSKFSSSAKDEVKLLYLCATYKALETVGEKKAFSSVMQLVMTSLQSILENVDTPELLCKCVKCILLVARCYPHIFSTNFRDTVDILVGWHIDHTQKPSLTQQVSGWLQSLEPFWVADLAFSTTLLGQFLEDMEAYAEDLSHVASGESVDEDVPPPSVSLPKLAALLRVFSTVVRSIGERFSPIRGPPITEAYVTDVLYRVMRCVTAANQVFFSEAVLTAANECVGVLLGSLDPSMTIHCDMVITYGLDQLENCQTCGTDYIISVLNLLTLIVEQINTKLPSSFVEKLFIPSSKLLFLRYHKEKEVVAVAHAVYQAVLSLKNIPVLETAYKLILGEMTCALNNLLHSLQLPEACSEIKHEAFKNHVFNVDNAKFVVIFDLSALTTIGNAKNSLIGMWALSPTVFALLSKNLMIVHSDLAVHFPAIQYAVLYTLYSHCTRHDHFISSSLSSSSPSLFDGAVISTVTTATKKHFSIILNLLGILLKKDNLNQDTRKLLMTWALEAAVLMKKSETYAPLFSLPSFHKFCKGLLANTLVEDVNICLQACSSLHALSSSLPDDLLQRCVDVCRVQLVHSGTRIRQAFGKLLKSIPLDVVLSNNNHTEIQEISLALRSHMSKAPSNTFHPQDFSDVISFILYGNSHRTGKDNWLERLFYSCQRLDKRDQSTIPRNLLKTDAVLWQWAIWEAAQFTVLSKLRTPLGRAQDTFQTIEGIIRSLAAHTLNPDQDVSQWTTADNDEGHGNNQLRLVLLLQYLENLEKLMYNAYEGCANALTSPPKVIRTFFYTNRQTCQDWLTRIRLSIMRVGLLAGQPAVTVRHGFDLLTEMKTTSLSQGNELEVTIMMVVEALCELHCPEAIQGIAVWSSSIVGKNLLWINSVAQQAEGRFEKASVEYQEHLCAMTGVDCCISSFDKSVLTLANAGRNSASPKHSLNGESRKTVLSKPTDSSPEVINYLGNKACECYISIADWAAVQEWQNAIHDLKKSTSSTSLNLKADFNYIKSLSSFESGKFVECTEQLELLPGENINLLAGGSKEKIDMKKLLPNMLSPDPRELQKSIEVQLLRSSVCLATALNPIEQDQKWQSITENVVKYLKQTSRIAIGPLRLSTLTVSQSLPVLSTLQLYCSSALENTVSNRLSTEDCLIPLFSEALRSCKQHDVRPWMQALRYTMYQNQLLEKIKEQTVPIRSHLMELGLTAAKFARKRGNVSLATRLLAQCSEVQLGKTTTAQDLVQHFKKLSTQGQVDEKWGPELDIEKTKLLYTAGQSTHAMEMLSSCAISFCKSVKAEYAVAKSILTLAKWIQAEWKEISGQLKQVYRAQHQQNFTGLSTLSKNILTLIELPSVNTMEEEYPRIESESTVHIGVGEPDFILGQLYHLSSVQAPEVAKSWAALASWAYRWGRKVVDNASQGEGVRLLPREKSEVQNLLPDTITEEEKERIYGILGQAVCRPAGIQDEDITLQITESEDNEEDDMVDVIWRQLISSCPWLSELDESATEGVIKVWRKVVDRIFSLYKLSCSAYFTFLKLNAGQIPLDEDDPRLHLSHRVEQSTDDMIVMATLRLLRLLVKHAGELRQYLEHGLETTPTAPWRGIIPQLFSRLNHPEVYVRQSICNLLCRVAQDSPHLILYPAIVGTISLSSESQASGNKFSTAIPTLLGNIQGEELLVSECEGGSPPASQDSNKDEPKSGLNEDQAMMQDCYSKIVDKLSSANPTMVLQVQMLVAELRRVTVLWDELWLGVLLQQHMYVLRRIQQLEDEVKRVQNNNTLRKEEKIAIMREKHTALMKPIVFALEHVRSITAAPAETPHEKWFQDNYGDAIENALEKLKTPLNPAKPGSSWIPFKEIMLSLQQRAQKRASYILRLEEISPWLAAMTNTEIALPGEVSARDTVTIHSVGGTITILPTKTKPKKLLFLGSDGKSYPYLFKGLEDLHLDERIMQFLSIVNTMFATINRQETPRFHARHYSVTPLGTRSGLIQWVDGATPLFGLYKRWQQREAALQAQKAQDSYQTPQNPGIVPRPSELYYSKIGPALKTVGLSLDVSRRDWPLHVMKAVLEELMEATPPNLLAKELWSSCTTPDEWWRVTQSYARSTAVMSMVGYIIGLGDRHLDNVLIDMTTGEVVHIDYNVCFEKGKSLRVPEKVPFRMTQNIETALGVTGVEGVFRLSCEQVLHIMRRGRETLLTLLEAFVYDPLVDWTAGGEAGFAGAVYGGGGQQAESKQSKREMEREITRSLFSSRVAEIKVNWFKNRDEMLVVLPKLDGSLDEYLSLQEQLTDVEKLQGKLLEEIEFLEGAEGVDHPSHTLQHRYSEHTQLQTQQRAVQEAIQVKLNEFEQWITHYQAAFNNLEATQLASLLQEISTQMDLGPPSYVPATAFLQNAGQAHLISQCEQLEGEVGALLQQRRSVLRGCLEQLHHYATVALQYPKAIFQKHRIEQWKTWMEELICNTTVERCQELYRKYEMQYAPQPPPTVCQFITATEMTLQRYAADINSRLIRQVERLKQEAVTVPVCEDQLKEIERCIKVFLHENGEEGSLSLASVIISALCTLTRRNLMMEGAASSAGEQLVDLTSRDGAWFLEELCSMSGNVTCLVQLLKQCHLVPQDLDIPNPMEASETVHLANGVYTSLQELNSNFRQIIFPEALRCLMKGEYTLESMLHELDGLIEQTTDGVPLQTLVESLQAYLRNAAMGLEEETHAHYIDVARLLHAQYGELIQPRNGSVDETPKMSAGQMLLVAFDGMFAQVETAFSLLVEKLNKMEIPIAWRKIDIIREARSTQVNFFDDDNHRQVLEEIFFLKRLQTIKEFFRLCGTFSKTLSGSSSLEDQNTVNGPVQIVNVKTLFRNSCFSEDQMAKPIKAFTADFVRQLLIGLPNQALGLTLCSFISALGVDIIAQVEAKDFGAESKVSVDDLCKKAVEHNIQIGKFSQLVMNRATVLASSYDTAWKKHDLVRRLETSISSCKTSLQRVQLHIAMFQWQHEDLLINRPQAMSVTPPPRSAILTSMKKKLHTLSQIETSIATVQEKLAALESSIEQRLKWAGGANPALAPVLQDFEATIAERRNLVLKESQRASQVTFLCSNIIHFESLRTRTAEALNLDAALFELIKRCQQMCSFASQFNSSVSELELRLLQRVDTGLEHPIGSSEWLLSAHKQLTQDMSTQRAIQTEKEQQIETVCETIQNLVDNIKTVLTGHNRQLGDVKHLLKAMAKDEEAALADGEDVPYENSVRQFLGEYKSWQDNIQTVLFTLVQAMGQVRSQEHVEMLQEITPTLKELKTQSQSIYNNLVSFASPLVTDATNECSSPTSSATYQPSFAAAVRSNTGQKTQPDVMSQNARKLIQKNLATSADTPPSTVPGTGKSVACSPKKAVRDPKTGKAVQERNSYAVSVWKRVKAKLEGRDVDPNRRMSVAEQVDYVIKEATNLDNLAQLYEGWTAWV
Sequence of Casein kinase I isoform delta (P48730 whole entry, looked up, canonical isoform): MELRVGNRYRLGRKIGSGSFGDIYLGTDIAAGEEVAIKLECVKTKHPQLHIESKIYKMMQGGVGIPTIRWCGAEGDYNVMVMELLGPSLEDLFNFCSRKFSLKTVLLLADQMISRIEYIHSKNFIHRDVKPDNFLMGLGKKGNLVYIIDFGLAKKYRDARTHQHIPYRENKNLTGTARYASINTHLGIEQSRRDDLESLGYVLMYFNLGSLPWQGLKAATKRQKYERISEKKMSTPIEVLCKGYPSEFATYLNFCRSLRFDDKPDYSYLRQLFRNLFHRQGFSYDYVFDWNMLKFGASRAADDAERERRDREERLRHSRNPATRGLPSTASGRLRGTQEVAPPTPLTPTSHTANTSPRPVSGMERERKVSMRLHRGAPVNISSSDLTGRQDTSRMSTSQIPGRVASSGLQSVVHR

C=CC(=O)Nc1ccc(C(=O)Nc2[nH]nc3c2CN(C(=O)N[C@H](CN(C)C)c2ccccc2)C3(C)C)cc1
% of engagement [1]: -31.2%
% of engagement ([2]; Selectivity number of off-targets 0.0, Selectivity number of targets 233.0, Source Knowledge https://www.sciencedirect.com/science/article/pii/S2451945619300674?via%3Dihub): -1.5%
% of engagement [2]: -1.9%

COCC(=O)NC/C=C/c1ccc2ncnc(Nc3ccc(Oc4ccc(C)nc4)c(C)c3)c2c1 [CP-724714]
% of control [3]: 100%

Nc1cnc(N2CCc3cc(S(=O)(=O)Nc4c(F)cc(Cl)cc4F)cc(N4CCCC4=O)c32)nc1 [TP-020n]
% of control [4]: 84%

Cn1cc(-n2cnc3c(NCc4nc5cc(Cl)c(Cl)cc5[nH]4)nc(N4CCOCC4)nc32)cn1
% of control [5]: 23.3%

O=C(NOC[C@H](O)CO)c1ccc(F)c(F)c1Nc1ccc(I)cc1F
% of control [6]: 100%
% of control [7]: 100%

CCC(=O)N1CC[C@H](Nc2ncnc3c2CN(c2cnc(OC)c(C(F)(F)F)c2)CC3)C1 [LENIOLISIB]
IC50 [8]: > 10 µM

C=CC(=O)Nc1cccc(C(=O)Nc2ccc(Nc3cc(-c4[nH]c(SC)nc4C)ccn3)cc2)c1
% of control [9]: 86%

N#Cc1cccc(-c2c[nH]c3ncnc(N4CCOCC4)c23)c1
% of inhibition [10]: 4%

CC[C@@H]1[C@H](F)C(=O)N[C@@H]1COc1nccc2cc(C(N)=O)c(OC)cc12 [ZIMLOVISERTIB]
% of inhibition [11]: -11.2%

CN(C)C/C=C/C(=O)Nc1ccc(C(=O)N2CCCC(Nc3ncc(Cl)c(-c4c[nH]c5ccccc45)n3)C2)cc1 (stereo not drawn)
% of control [12]: 80%

Source: ChEMBL document CHEMBL5465560, “Selectivity Literature for EUbOPEN Chemogenomic Library” (2024)
